Data: US6503947B1, “Method of treating cytotoxic damage” (Brigham and Women's Hospital, priority 1998, dated 2003)

Tests used:
complement C3 = complement C3 (Homo sapiens, UniProt P01024); assay: complement C3 inhibitory IC50 of SHA; format: biochemical
[1] = test system: mice subjected to middle cerebral artery occlusion; assay: Middle cerebral artery (MCA) occlusion stroke model, infarct volume with SHA; format: in vivo, C57BL/6 mice; details: 400 mg/kg i.p. twice (at occlusion and 1.5 h later), sacrifice at 24 hours, mean±SEM, n=3
Method: FIG. 5 is a graph depicting the infarct volume of C57BL/6 mice subjected to middle cerebral artery occlusion and treated with saline (Control, n=3) or SHA (SHA, n=3).
SHA was tested for its ability to prevent cytotoxic damage by using the middle cerebral artery (MCA) occlusion stroke model (Longa et al., supra). Briefly, this system involves anesthetizing mice with isoflurane and then maintaining the body temperature of the mice at 36±1° C. A 6.0 monofilament nylon suture with silicone-coated tip was then advanced into the internal carotid artery about 9 mm via the external carotid artery. Immediately after the filament was secured, SHA (400 mg/kg i.p.) or vehicle (normal saline) was injected. At 1.5 hours after the first injection, a second i.p. injection was given to the animal. 2 hours later the animals were re-anesthetized and the filament was removed to allow reperfusion. Cerebral blood flow, blood pressure, blood gases, pH, and serum glucose were monitored in these studies. At 24 hours the animals were sacrificed, brains removed and 1 mm thick brain section are cut on a vibratome. The brain slices were stained with 2% triphenyltetrazolium choloride. The infarct volume was obtained as described in Swanson et al., supra with results being (mean+SEM, n=3 in each group) 62.6±34.2 mm^3 in the vehicle-treated group versus 6.1±6.0 mm^3 in the SHA-treated group.

[2] = Pharmacokinetics of SHA in blood and brain after i.p. injection; format: in vivo, Sprague-Dawley rats; details: 400 mg/kg i.p., rat
Method: SHA (400 mg/kg) was injected intraperitoneally (i.p.) into Sprague-Dawley rats. At fixed time intervals after injection, blood samples were collected, and perfused brain was removed and homogenized. Acidified blood and brain samples were extracted in ethyl acetate. SHA was quantitated by reverse phase HPLC at 310 nm, and compared to known amounts of standards that had been added to blood or brain tissue as shown in FIG. 4.
The time of SHA injection after the onset of ischemia or reperfusion can be systematically varied to determine other ranges in which therapeutic intervention is available using this drug.

[3] = test system: mice subjected to middle cerebral artery occlusion; assay: Intravenous injection of tPA into tPA-deficient or wild-type mice with intraluminal filament MCA occlusion; format: in vivo, mice (C57BL/6 or SV129)
Method: Wild-type and tPA-deficient male mice (on C57Black/6 and SV129 backgrounds) weighing 23-27 grams were housed in a 12 hour light/dark cycle and permitted food and water intake ad libitum. Transient ischemia/reperfusion was performed using the intravascular filament model to occlude the middle cerebral artery unilaterally for 2 or 3 hours followed by reperfusion for the remainder of the 24 hour period as described in Longa et al., Stroke 20, 84-91 (1989) and Soriano. et al. Ann. Neurol. 39, 618-624 (1996). Briefly, under isoflurane anesthesia, a 6.0 nylon filament coated with silicone was threaded into the lumen of the middle cerebral artery of mice (C57Black/6 and SVI29 backgrounds) to produce transient ischemia. After 2 or 3 hours of occlusion, the filament was gently withdrawn to allow tissue reperfusion. Body temperature was maintained at 36.5±1.0° C. […] Animals were sacrificed 24 hours after the onset of the insult as described in Huang et al. Science 265, 1883-1885 (1994) and Soriano, supra. Infarct volumes were digitally quantified on 1.5 mm thick coronal sections after correction for edema by measuring TTC staining, as described in Soriano, supra, Bederson et al., Stroke 17,472-476 (1986); Swanson et al., J. Cereb. Blood Flow Metab. 10, 290-293 (1990), Lin et al., Stroke 24, 117-121 (1993); Zhang, et al., Neurology 44, 1747-1751 (1994); and Chopp et al. Stroke 25, 869-876 (1994)). Infarct volume decreased from 116±8 mm^3 in control wild-type mice to 69±7 mm^3 in tPA-deficient mice (mean±s.e.m., n=19 mice), as shown in FIG. 1. Under these conditions, there is no thrombosis at the occluded site, so the absence of tPA would not contribute to damage via an enhanced clotting cascade.
To determine the effect of intravenous injection of tPA into tPA-deficient or wild-type mice (C57BL/6 or SV129), intravenous tPA was administered intravenously, 10% initially by bolus, followed by constant infusion over twenty to thirty minutes at 0.9-1.0 mg/kg (similar to rt-PA Stroke Study Group, N. EngL J. Med. 333, 1581-1587 (1995) and Hacke. et al. JAMA 274, 1017-1025 (1995). The formula for the carrier used to dilute tPA was obtained from the manufacturer (Genentech, San Francisco, Calif.) and was used as one of the control injections. The diluent consisted of 0.02 M arginine phosphate at pH 7.3 with 0.001% Tween. […] In wildtype, but not tPA deficient mice, ischemia induced an increase in tPA activity, as assessed by histological zymography. Briefly, wild-type or tPA deficient mice were subjected to 2 hours of focal ischemia. After 10 minutes of reperfusion, the animals were sacrificed and their brains frozen as described previously (Tsirka et al., Nature 377, 340-344 (1995)). Then, 12 μm consecutive coronal brain cryostat sections were subjected to histological zymography to visualize tPA activity with or without amiloride (1 mM, a specific urokinase [uPA] inhibitor) (Sappino et al J. Clin. Invest. 92, 679-685 (1993) and Rosenberg et al., Cereb. Blood Flow Metab. 16, 360-366 (1996)). The sections were overlaid with a milk-agarose substrate matrix containing 50 ug/ml of purified human plasminogen and 1 mg/ml amiloride. […]
Regional cerebral blood flow was also monitored by the laser Doppler flowmetry technique as described in Dimagl et al J. Cereb. […] Briefly, the initial reading of regional Cerebral Blood Flow (rCBF) was assigned a value of 100% and subsequent readings were expressed relative to this value. […]

Chain of complement C3 (P01024 23-1663, species assumed): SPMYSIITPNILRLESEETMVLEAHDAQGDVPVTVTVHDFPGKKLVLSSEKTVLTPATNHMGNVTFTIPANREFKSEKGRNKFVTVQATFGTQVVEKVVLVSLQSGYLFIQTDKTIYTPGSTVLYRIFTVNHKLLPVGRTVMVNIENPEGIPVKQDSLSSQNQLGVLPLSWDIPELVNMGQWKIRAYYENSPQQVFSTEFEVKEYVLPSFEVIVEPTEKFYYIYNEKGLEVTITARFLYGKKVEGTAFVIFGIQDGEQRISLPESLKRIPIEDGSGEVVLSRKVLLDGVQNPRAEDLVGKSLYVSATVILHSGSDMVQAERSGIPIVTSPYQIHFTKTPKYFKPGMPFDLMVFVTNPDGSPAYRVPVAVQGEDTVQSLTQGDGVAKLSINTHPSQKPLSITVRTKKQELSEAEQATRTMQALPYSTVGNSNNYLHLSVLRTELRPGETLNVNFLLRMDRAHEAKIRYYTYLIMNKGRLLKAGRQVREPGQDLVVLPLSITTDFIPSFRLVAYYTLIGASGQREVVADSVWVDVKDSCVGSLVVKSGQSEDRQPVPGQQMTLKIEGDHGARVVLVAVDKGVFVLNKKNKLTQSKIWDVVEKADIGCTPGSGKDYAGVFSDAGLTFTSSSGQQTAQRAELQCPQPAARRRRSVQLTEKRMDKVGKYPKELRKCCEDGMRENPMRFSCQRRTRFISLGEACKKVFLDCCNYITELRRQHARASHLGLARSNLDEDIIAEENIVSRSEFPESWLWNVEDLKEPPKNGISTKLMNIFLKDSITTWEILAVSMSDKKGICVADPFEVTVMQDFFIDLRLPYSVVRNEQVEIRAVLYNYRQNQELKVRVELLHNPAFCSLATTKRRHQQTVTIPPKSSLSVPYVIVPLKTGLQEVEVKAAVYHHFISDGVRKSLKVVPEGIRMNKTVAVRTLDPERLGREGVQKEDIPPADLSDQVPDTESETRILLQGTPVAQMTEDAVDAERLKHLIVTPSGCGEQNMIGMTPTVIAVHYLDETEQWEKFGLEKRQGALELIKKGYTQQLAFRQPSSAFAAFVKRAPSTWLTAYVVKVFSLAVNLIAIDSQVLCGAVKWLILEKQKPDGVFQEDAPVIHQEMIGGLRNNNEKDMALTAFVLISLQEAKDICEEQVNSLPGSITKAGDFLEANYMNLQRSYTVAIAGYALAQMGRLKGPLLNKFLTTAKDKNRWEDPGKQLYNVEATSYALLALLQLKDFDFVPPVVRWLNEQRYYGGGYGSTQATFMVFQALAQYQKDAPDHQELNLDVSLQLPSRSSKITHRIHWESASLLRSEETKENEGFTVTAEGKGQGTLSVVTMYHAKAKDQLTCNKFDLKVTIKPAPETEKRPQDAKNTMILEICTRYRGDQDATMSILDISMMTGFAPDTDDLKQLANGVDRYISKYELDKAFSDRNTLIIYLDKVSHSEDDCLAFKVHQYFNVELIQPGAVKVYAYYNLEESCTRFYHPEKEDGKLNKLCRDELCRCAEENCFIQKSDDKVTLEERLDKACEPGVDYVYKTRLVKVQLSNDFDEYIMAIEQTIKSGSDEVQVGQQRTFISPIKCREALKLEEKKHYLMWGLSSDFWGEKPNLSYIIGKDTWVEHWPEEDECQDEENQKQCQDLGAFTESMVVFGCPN

| Molecule | IC50 (complement C3) [µM] | complement C3 inhibitory IC50, equivalent brain concentration (complement C3; equivalent of the IC50 expressed per g brain) [mg SHA/g brain] | infarct volume [1] [mm^3] | ability to cross the blood-brain barrier ([2]; normal brain) | time after injection during which SHA concentration in blood and brain exceeds the complement C3 IC50 ([2]; blood and brain) [h] | time of peak concentration in blood and brain after drug administration ([2]; blood and brain) | hemorrhage or other bleeding diathesis at postmortem examination ([3]; tPA 0.9-1.0 mg/kg i.v., all animals) | entry of tPA activity into the brain (histological zymography) ([3]; tPA-deficient mice, intravenous exogenous tPA) | increase in size of cerebral infarction ([3]; tPA-deficient mice, tPA 0.9-1.0 mg/kg i.v.) | effect on size of the stroke with large cerebral infarcts ([3]; wild-type mice, 3 hours of vascular occlusion, versus control animals not receiving tPA) | increase in size of cerebral infarction ([3]; wild-type mice, tPA 0.9-1.0 mg/kg i.v., 2 hour occlusion) |
| --- | --- | --- | --- | --- | --- | --- | --- | --- | --- | --- | --- |
| O=C(NO)c1ccccc1O [SHA, salicylhydroxamic acid] | 8.3 | 0.0013 | 6.1±6.0 | able to cross the blood-brain barrier quite effectively | 2 | about 30 minutes |  |  |  |  |  |
| tPA: serine protease tissue plasminogen activator, thrombolytic agent, commercially available from Genentech |  |  |  |  |  |  | No hemorrhage or other bleeding diathesis occurred | apparent entry of tPA activity into the brain | near doubling of the damage | did not enhance the size of the stroke | 20-35% |
